Literature values, collected in US11224631B2, “Ready-to-use Carfilzomib compositions” (Orbicular Pharmaceutical Technologies Pvt. Ltd., priority 2017, dated 2022).

Aqueous solubility: low aqueous solubility
Structure (SMILES): CC(C)C[C@H](NC(=O)[C@H](CCc1ccccc1)NC(=O)CN1CCOCC1)C(=O)N[C@@H](Cc1ccccc1)C(=O)N[C@@H](CC(C)C)C(=O)[C@@]1(C)CO1 [Carfilzomib]
